Laboratory results as given in patent publication US10071034B2, “Solvent compositions” (Amyris, Inc., priority 2014, dated 2018).

Assay: Oxidative stability
Type: physicochemical
Protocol: For each sample, a test composition was stored for 104 weeks at 25° C. The amount of composition remaining was tested and compared to the amount at the initial time. Further samples were stored for 6 days at 60° C. The amount of composition remaining was tested and compared to the amount at the initial time.

C=C(C)[C@H]1CC=C(C)CC1 [d-limonene]
amount of composition remaining compared to initial (6 Days @ 60° C.): 52.3%
amount of composition remaining compared to initial (104 Weeks @ 25° C.): 24.0%
oxidative stability in comparison (d-limonene versus Example 2 composition): less than that of the present solvent embodiment
